Reference: patent US20090143455A1, “Pyrazoles Useful in the Treatment of Inflammation” (priority 2005, published 2009)

Target: T1, purified human 15-lipoxygenase (Homo sapiens, UniProt P16050)
T1 sequence (P16050 1-662): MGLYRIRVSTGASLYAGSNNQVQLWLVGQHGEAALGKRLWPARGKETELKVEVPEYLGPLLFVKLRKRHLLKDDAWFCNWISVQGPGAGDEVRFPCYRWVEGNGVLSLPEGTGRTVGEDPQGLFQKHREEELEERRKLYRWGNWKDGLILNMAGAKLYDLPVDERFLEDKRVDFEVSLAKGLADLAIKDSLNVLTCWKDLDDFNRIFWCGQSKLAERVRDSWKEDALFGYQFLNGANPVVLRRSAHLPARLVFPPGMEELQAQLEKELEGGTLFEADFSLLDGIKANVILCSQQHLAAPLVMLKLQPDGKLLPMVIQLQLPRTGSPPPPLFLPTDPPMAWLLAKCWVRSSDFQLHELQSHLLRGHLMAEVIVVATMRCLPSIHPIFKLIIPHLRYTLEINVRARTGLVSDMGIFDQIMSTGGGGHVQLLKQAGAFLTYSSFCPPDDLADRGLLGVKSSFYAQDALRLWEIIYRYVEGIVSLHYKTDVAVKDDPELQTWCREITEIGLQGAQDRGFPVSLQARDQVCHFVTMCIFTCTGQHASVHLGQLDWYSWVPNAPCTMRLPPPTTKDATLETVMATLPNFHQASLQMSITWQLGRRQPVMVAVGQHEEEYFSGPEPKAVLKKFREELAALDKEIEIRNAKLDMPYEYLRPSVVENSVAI
Assay: 15-lipoxygenase inhibition assay (arachidonic acid oxidation, HPLC readout)
Assay type: biochemical
Conditions: arachidonic acid substrate, room temperature
Procedure: The assay employed takes advantage of the ability of lipoxygenases to oxidize polyunsaturated fatty acids, containing a 1,4-cis-pentadiene configuration, to their corresponding hydroperoxy or hydroxyl derivatives. In this particular assay, the lipoxygenase was a purified human 15-lipoxygenase and the fatty acid was arachidonic acid. The assay is performed at room temperature (20-22° C.) and the following are added to each well in a 96-well microtiter plate:
a) 35 μL phosphate buffered saline […] (pH 7.4); b) inhibitor (i.e. compound) or vehicle (0.5 μl DMSO); c) 10 μL of a 10× concentrated solution of 15-lipoxygenase in PBS. […] The plate is then incubated for 10 minutes at room temperature; e) the enzymatic reaction is terminated by the addition of 100 μl MeOH; and f) the amount of 15-hydroperoxy-eicosatetraenoic acid or 15-hydroxy-eicosatetraenoic acid is measured by reverse phase HPLC.

| SMILES | IC50 |
| --- | --- |
| O=C(Nc1ccc(F)cc1)c1cc(Cl)[nH]n1 [Example 7, 5-Chloro-N-(4-fluorophenyl)pyrazole-3-carboxamide] | 182 nM |
| O=C(Nc1ccc(Cl)cc1)c1cc(Cl)[nH]n1 [Example 8, 5-Chloro-N-(4-chlorophenyl)pyrazole-3-carboxamide] | 78 nM |
| O=C(Nc1ccccc1OC(F)F)c1cc(Cl)[nH]n1 [Example 19, 5-Chloro-N-(2-difluoro-methoxyphenyl)pyrazole-3-carboxamide] | 69 nM |
| O=C(Nc1ccc(F)cc1F)c1cc(Cl)[nH]n1 [Example 5, 5-Chloro-N-(2,4-difluorophenyl)pyrazole-3-carboxamide] | 265 nM |
